One data set relates to ARPE-19 cells. The experiment in a line: Cytotoxicity, LDH-Cytotoxic Test in ARPE-19 cells. In kind it is cell-based, human. The settings on record: 10 μM, approx. 16 hours, 3 wells. The method, then: ARPE-19 cells (human retinal pigment epithelium cell line, ATCC, catalog No. CRL-2302) were cultured (5% CO2, 37° C.). A DMEM/F12 (Life Technologies Japan Ltd., catalog No. 11330-032) mixed medium containing 10% inactivated FBS was used. The medium contained 100 units/mL (final concentration) penicillin and 100 μg/[…] (final concentration) streptomycin.
The ARPE-19 cells were seeded at 5000 cells/well in a 96-well plate. The amount of the medium was 50 μL. Approximately 3 hours later, 50 μL of a medium containing CDDO-Me or each of terpenoid derivatives A to H was added thereto, followed by culture for approximately 16 hours. Then, cytotoxicity was evaluated using LDH-Cytotoxic Test (Wako Pure Chemical Industries, Ltd., catalog No. 299-50601). The evaluation method followed the attached document. Each group consisted of 3 wells and was indicated as cytotoxicity at the concentration of 10 μM. The means thereof were 43% for CDDO-Me, 2% for terpenoid derivative A, 2% for terpenoid derivative B, 2% for terpenoid derivative C, 1% for terpenoid derivative D, 2% for terpenoid derivative E, 3% for terpenoid derivative F, 3% for terpenoid derivative G, and 1% for terpenoid derivative H. Terpenoid derivatives A to H were low in cytotoxicity as compared with CDDO-Me.

In another data set the test system is NQO1. The experiment in a line: NQO1 assay in Hepa1c1c7 cells. In kind it is cell-based, mouse. The settings on record: approx. 48 hours, mean of 3 wells. The method, then: Hepa1c1c7 cells (mouse hepatic cell line, ATCC, catalog No. CRL-2026) were cultured (5% CO2, 37° C.). A DMEM (Life Technologies Japan Ltd., catalog No. 11965-092) medium also containing 10% inactivated FBS was used. The medium contained 100 units/mL (final concentration) penicillin and 100 μg/[…] (final concentration) streptomycin. The NQO1 assay was conducted according to previous reports (Anal Biochem 1998; 169: 328-; and Methods Enzymol 2004; 382: 243-).
The Hepa1c1c7 cells were seeded at 10000 cells/well in a 96-well plate. The amount of the medium was 100 μL. Approximately 24 hours later, the medium was replaced with a medium containing CDDO-Me or each of terpenoid derivatives A to G, followed by further culture for approximately 48 hours. A lysis solution (a solution containing 2 mM EDTA and 0.8% digitonin), a reaction solution (a solution containing 0.025 M of tris-HCl, 0.067% of albumin, 0.01% of Tween-20, 2 U/mL of glucose-6-phosphate dehydrogenase, 5 μM of flavin adenine dinucleotide, 1 […], 30 μM of nicotinamide adenine dinucleotide phosphate, 0.03% of 3-(4,5-dimethyl-2-thiazolyl)-2,5-diphenyltetrazolium bromide (MTT), and 50 μM of menadione), and a stop solution (a solution containing 0.3 mM dicumarol and 5 mM potassium dihydrogen phosphate, pH 7.4) were prepared. After removal of the medium, 50 μL of the lysis solution was added thereto, and the mixture was left standing at 37° C. for 10 minutes. The reaction mixture was further shaken at room temperature for 10 minutes.
Two hundred μL of the solution was added thereto, and the mixture was left standing at room temperature for 5 minutes. Fifty μL of the stop solution was added thereto, and the absorbance at 490 nm was measured.
The test results were analyzed using Prism (GraphPad Software, Inc., Ver. 5) to calculate the CD value of the concentration at which the activity of NQO1 was increased 2-fold. Each group consisted of 3 wells and indicated as a mean of CD values.

In the case of `COC(=O)[C@]12CC[C@](C)(CO)C[C@H]1[C@H]1C(=O)C=C3[C@@]4(C)[C@H]5O[C@@]5(C#N)C(=O)C(C)(C)[C@@H]4CC[C@@]3(C)[C@]1(C)CC2` [terpenoid derivative A], the “cytotoxicity (LDH-Cytotoxic Test), mean” value in the data set on ARPE-19 cells is given as 2%. The “CD value (concentration at which the activity of NQO1 was increased 2-fold)” value in the data set on NQO1 turned out to be 1.3 nM.
As for `COC(=O)[C@@]12CC[C@]3(C)[C@H](C(=O)C=C4[C@@]5(C)[C@H]6O[C@@]6(C#N)C(=O)C(C)(C)[C@@H]5CC[C@]43C)[C@@H]1CC(C)(C)C(=O)C2` [terpenoid derivative C], the “cytotoxicity (LDH-Cytotoxic Test), mean” value in the data set with ARPE-19 cells came out at 2%. Besides, in the data set on NQO1, the “CD value (concentration at which the activity of NQO1 was increased 2-fold)” value is 0.4 nM.
For the compound `COC(=O)[C@]12CC[C@@](C)(CO)C[C@H]1[C@H]1C(=O)C=C3[C@@]4(C)[C@H]5O[C@@]5(C#N)C(=O)C(C)(C)[C@@H]4CC[C@@]3(C)[C@]1(C)CC2` [terpenoid derivative D], the “cytotoxicity (LDH-Cytotoxic Test), mean” value in the data set on ARPE-19 cells was 1%. For the same compound, the “CD value (concentration at which the activity of NQO1 was increased 2-fold)” value in the data set with NQO1 came out at 0.9 nM.
Consider `CC1(C)CC(O)[C@]2(C(N)=O)CC[C@]3(C)[C@H](C(=O)C=C4[C@@]5(C)C6OC6(C#N)C(=O)C(C)(C)[C@@H]5CC[C@]43C)[C@@H]2C1` (stereo partly shown) [terpenoid derivative E], for which the “cytotoxicity (LDH-Cytotoxic Test), mean” value in the data set with ARPE-19 cells is reported as 2%. The “CD value (concentration at which the activity of NQO1 was increased 2-fold)” value in the data set on NQO1 stood at 2.1 nM.
In the same order, the values of `CC1(C)C[C@H]2[C@H]3C(=O)C=C4[C@@]5(C)C6OC6(C#N)C(=O)C(C)(C)[C@@H]5CC[C@@]4(C)[C@]3(C)CC[C@@]2(C#N)CC1O` (stereo partly shown) [terpenoid derivative F] are 3% and 0.1 nM.
On to `CC1(C)C[C@H]2[C@H]3C(=O)C=C4[C@@]5(C)C=C(C#N)C(=O)C(C)(C)[C@@H]5CC[C@@]4(C)[C@]3(C)CC[C@@]2(C#N)CC1O` (stereo partly shown) [terpenoid derivative G], for which the “cytotoxicity (LDH-Cytotoxic Test), mean” value in the data set on ARPE-19 cells worked out at 3%. The “CD value (concentration at which the activity of NQO1 was increased 2-fold)” value in the data set on NQO1 was determined as 0.1 nM.
Take `COC(=O)[C@]12CCC(C)(C)C[C@H]1[C@H]1C(=O)C=C3[C@@]4(C)C5OC5(C#N)C(=O)C(C)(C)[C@@H]4CC(O)[C@@]3(C)[C@]1(C)CC2` (stereo partly shown) [terpenoid derivative H]: the “cytotoxicity (LDH-Cytotoxic Test), mean” value in the data set on ARPE-19 cells came out at 1%.

Values taken from patent US10253060B2, “Terpenoid derivatives” (Daiichi Sankyo Company, Limited, priority 2013, dated 2019).
